In publication PMC12711018, “Structural flexibility of the nicotinamide group of NADH in butanol dehydrogenase YqdH from Fusobacterium nucleatum” (PLOS One, 2025):

Target: T1, FnYqdH (butanol dehydrogenase YqdH) (Fusobacterium nucleatum, UniProt Q8R612)
T1 construct: gene FN1415; recombinant from pPRO-EX-HTA in E. coli BL21 (DE3); His6 tag removed with TEV protease
T1 sequence (Q8R612 1-385): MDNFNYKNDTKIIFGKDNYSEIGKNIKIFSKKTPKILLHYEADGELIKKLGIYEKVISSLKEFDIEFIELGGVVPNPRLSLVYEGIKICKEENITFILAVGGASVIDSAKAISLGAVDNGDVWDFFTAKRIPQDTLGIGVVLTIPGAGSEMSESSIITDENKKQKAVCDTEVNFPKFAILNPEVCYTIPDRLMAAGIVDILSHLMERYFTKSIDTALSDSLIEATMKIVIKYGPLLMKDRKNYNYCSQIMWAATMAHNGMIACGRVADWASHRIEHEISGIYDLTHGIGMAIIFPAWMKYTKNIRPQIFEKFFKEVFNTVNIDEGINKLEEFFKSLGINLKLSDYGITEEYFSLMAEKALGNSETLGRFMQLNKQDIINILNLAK
Assay: X-ray crystallography, crystal soaked with NADH ([…] A)
Format: binding
Conditions: soak 1 min in 10 mM NADH, 2 mM Co2+, 25% glycerol; crystals grown in 0.1 M HEPES pH 7.5, 1.8 M ammonium phosphate; only the ADP part is seen and modelled as ADP, nicotinamide part disordered

Question: For `NC(=O)C1=CN([C@@H]2O[C@H](COP(=O)(O)OP(=O)(O)OC[C@H]3O[C@@H](n4cnc5c(N)ncnc54)[C@H](O)[C@@H]3O)[C@@H](O)[C@H]2O)C=CC1` [NADH], which “X-ray crystallography, crystal soaked with NADH (2.70 A)” value is on record?
Answer: presence of the adenine and diphosphate groups of the NADH molecule
